Laboratory results published in ChEMBL document CHEMBL3397036, “Novel tail and head group prostamide probes” (Bioorg Med Chem Lett, 2015).
Active and inactive are the calls of the source. The calls are words filed in the database; no cut-off is given here.

Key:
[1] = molecular target: T1, N-acylethanolamine-hydrolyzing acid amidase (Homo sapiens, UniProt Q02083); assay: Inhibition of human NAAA
T1 sequence (Q02083 whole entry): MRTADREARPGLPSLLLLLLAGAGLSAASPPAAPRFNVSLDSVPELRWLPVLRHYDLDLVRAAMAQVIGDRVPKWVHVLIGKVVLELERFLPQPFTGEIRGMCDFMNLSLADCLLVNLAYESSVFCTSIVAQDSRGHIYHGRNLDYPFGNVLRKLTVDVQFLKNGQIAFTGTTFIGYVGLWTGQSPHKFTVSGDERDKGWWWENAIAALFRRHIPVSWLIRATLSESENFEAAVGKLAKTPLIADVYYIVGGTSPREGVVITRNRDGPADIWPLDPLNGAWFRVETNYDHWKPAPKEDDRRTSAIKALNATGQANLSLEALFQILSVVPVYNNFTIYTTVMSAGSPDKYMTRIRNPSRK

Cannabinoid receptor 2 [2] = molecular target: Cannabinoid receptor 2 (Mus musculus, UniProt P47936); assay: Displacement of [3H]CP-55,940 from mouse CB2 receptor expressed in HEK293 cells; type: cell-based
[3] = molecular target: T2, Fatty-acid amide hydrolase 1 (Homo sapiens, UniProt O00519); assay: Inhibition of human FAAH
T2 sequence (O00519 whole entry): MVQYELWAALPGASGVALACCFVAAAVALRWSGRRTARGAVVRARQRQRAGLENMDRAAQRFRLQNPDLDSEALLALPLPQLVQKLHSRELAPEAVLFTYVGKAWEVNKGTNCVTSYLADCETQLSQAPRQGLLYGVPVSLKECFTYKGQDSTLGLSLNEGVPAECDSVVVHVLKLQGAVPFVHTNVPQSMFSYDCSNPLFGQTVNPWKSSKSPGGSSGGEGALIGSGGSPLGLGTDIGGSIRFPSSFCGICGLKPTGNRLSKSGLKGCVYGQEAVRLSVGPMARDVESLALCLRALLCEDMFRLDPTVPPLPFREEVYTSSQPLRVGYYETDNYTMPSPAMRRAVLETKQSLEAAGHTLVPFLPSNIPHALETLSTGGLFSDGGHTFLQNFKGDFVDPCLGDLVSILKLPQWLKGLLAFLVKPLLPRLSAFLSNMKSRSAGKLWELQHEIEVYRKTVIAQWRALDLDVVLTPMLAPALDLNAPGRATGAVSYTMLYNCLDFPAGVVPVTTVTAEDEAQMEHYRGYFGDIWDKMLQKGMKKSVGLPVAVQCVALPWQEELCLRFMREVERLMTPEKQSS

Monoglyceride lipase = molecular target: T3, Monoglyceride lipase (Homo sapiens, UniProt Q99685); assay: Inhibition of human MGL
T3 sequence (Q99685 whole entry): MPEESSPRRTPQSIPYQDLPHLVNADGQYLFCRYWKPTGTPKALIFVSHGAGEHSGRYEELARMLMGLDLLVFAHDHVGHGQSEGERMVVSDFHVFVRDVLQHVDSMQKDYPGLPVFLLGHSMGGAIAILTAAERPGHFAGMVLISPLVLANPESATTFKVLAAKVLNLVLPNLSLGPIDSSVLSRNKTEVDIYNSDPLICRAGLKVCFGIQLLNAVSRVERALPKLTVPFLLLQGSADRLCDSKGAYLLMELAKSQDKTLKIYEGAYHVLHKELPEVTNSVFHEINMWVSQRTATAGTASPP

Cannabinoid receptor 1 [4] = molecular target: T4, Cannabinoid receptor 1 (Rattus norvegicus, UniProt P20272); assay: Displacement of [3H]CP-55,940 from CB1 receptor in rat brain homogenates in absence of phenylmethanesulfonyl fluoride; type: tissue-based
Cannabinoid receptor 1 [5] = molecular target: T4, Cannabinoid receptor 1; assay: Displacement of [3H]CP-55,940 from CB1 receptor in rat brain homogenates in presence of phenylmethanesulfonyl fluoride; type: tissue-based
[6] = molecular target: T5, Fatty-acid amide hydrolase 1 (Rattus norvegicus, UniProt P97612); assay: Inhibition of rat FAAH
T5 sequence (P97612 whole entry): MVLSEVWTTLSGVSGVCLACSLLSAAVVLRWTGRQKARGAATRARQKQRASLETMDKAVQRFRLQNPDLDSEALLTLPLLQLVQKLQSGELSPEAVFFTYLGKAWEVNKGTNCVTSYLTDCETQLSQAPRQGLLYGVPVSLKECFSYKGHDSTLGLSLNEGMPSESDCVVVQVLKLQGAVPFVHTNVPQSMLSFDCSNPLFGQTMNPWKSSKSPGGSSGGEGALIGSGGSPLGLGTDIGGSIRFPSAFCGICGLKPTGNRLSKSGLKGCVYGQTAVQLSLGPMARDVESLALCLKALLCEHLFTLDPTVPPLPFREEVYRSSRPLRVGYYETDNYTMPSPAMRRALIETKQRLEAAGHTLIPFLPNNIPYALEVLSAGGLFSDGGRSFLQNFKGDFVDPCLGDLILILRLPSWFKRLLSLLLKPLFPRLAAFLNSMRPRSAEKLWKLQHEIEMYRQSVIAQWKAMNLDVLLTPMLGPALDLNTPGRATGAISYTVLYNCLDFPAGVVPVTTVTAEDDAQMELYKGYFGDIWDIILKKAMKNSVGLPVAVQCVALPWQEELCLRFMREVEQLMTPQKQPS

Cannabinoid receptor 2 [7] = molecular target: Cannabinoid receptor 2 (Homo sapiens, UniProt P34972); assay: Displacement of [3H]CP-55,940 from human CB2 receptor expressed in HEK293 cells; type: cell-based
[8] = molecular target: T6, Prostaglandin E2 receptor EP1 subtype (Homo sapiens) (UniProt P34995); assay: Activity at recombinant EP1 receptor (unknown origin) expressed in CHO cells co-expressing Gq protein at 100 nM by electrical cell substrate impedance sensing system; type: cell-based
T6 sequence (whole entry): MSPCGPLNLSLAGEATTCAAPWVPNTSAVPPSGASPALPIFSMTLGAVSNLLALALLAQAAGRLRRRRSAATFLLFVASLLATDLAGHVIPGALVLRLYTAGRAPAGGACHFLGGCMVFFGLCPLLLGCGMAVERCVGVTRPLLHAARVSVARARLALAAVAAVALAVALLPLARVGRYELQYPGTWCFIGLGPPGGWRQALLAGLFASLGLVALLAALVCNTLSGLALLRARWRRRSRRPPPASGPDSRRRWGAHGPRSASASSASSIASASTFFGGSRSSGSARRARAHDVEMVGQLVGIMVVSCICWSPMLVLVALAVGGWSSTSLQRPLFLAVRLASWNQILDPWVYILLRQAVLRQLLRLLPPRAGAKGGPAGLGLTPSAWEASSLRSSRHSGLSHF

[9] = molecular target: Prostaglandin E2 receptor EP4 subtype (Homo sapiens) (UniProt P35408); assay: Activity at recombinant EP4 receptor (unknown origin) expressed in CHO cells co-expressing Gs protein at 100 nM by electrical cell substrate impedance sensing system; type: cell-based
[10] = molecular target: T7, Prostaglandin E2 receptor EP3 subtype (Homo sapiens) (UniProt P43115); assay: Activity at recombinant EP3 receptor (unknown origin) expressed in CHO cells co-expressing Gi protein at 100 nM by electrical cell substrate impedance sensing system; type: cell-based
T7 sequence (whole entry): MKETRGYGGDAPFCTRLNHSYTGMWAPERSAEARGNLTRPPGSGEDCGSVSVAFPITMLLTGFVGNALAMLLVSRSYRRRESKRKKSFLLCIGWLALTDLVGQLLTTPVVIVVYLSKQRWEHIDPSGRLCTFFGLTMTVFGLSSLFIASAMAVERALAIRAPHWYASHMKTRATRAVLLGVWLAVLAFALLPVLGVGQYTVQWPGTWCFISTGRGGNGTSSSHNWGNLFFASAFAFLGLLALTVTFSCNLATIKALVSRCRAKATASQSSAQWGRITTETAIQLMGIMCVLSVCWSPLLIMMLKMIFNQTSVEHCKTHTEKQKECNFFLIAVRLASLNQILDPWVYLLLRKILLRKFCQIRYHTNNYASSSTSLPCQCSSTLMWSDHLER

Sequence of Cannabinoid receptor 2 (Mus musculus, UniProt P47936) (P47936 whole entry): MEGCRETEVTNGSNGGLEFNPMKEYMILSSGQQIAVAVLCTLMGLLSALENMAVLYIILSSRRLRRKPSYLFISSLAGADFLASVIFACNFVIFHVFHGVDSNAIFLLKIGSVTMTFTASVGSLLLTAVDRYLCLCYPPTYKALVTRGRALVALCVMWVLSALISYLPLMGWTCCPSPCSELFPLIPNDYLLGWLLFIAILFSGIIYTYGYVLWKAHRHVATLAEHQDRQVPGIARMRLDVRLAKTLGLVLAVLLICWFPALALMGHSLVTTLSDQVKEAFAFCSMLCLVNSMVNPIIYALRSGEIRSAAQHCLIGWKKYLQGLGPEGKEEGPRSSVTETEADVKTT
T4 sequence (P20272 whole entry): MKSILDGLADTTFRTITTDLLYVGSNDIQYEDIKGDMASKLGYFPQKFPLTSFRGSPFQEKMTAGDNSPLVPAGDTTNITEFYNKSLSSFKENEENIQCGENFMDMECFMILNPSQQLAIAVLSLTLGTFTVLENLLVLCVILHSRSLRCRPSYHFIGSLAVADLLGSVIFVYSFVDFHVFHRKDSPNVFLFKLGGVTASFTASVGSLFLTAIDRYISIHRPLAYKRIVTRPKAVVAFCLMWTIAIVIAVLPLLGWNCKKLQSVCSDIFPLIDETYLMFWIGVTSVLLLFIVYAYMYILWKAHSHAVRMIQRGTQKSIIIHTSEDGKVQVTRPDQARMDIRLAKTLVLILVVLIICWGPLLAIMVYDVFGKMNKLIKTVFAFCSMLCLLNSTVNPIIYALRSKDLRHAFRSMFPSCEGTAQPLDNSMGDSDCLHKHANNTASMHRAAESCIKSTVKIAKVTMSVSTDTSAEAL
Sequence of Cannabinoid receptor 2 (Homo sapiens, UniProt P34972) (P34972 whole entry): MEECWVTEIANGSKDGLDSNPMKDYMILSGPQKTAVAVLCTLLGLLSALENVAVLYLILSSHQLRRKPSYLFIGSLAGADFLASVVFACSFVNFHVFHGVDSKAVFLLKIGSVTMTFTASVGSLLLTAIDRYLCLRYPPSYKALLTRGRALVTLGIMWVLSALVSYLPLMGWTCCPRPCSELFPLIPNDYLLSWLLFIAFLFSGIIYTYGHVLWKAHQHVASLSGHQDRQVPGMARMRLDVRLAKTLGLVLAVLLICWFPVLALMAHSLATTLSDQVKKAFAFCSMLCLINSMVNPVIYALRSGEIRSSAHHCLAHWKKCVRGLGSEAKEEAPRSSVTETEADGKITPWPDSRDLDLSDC
Sequence of Prostaglandin E2 receptor EP4 subtype (Homo sapiens) (P35408 whole entry): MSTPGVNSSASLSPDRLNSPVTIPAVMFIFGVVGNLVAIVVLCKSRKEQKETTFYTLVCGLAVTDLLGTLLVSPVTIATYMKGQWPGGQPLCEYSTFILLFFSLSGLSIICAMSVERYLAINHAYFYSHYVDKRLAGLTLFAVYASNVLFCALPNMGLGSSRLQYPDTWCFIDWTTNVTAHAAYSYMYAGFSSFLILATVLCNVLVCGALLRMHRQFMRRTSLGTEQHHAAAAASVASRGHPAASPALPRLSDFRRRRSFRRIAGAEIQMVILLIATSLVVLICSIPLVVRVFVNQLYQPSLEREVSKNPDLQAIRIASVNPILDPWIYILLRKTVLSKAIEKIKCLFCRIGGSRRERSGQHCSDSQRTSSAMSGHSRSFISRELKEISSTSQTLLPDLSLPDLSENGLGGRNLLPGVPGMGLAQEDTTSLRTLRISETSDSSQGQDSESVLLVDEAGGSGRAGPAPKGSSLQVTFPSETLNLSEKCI

| IC50 [1] [nM] | Ki (Cannabinoid receptor 2 [2]) [nM] | IC50 [3] [nM] | IC50 (Monoglyceride lipase) [nM] | Ki (Cannabinoid receptor 1 [4]) [nM] | Ki (Cannabinoid receptor 1 [5]) [nM] | IC50 [6] [nM] | Ki (Cannabinoid receptor 2 [7]) [nM] | Activity [8] | Activity [9] | Activity [10] | Compound |
| --- | --- | --- | --- | --- | --- | --- | --- | --- | --- | --- | --- |
| > 100000 | > 1000 | > 100000 | > 100000 | > 1000 | 950 | > 100000 | > 1000 |  |  |  | C[C@@H](CO)NC(=O)CCC/C=C\C[C@H]1C(=O)C[C@@H](O)[C@@H]1/C=C/[C@@H](O)CCc1ccccc1 |
|  |  |  |  |  |  |  |  | inactive | inactive | inactive | CCCCC[C@H](O)/C=C/[C@H]1[C@H](O)CC(=O)[C@@H]1C/C=C\CCCC(=O)NCCO |
| > 100000 | > 1000 | > 100000 | > 100000 | 740 | 740 | > 100000 | > 1000 |  |  |  | O=C(CCC/C=C\C[C@H]1C(=O)C[C@@H](O)[C@@H]1/C=C/[C@H](O)CCc1ccccc1)NCCO |
| > 100000 | > 1000 | > 100000 | > 100000 | 830 | 620 | > 100000 | > 1000 |  |  |  | O=C(CCC/C=C\C[C@H]1C(=O)C[C@@H](O)[C@@H]1/C=C/[C@@H](O)CCc1ccc(I)cc1)NCCO |
| > 100000 | > 1000 | > 100000 | 100000 | > 1000 | > 1000 | > 100000 | > 1000 | inactive | inactive | inactive | O=C(CCC/C=C\C[C@H]1C(=O)C[C@@H](O)[C@@H]1/C=C/[C@@H](O)CCc1ccccc1)NCCO |
| > 100000 | > 1000 | > 100000 | > 100000 | 770 | 730 | > 100000 | > 1000 |  |  |  | C[C@H](CO)NC(=O)CCC/C=C\C[C@H]1C(=O)C[C@@H](O)[C@@H]1/C=C/[C@@H](O)CCc1ccccc1 |
| > 100000 | > 1000 | > 100000 | > 100000 | > 1000 | > 1000 | > 100000 | > 1000 |  |  |  | O=C(CCC/C=C\C[C@H]1C(=O)C[C@@H](O)[C@@H]1/C=C/[C@@H](O)CCc1ccccc1)NCCCO |
|  |  |  |  |  |  |  |  | Active | Active | Active | CCCCC[C@H](O)/C=C/[C@H]1[C@H](O)CC(=O)[C@@H]1C/C=C\CCCC(=O)O |
